Like-named read-outs stand apart in the source and are kept apart here.
Legend:
[1] = system: HIV-1 Env pseudovirus HIV-16936-2, clone 21; assay: Single-cycle assay TZM-bl, Env pseudovirus panel
[2] = system: HIV-1 Env pseudovirus QF495.23M.ENV.A3; assay: Single-cycle assay TZM-bl, Env pseudovirus panel
[3] = system: HIV-1 Env pseudovirus TRO, clone 11; assay: Single-cycle assay TZM-bl, Env pseudovirus panel
[4] = system: HIV-1 Env pseudovirus RHPA4259, clone 7; assay: Single-cycle assay TZM-bl, Env pseudovirus panel
[5] = system: control pseudovirus VSV-G; assay: microbe, parasite or virus in culture; type: cell-based
[6] = system: HIV-1 Env pseudovirus HIV-00836-2, clone 5; assay: Single-cycle assay TZM-bl, Env pseudovirus panel
[7] = system: HIV-1 Env pseudovirus BK184.W6M.ENV.D2; assay: Single-cycle assay, Paired Infant and Maternal Env clones
[8] = system: HIV-1 Env pseudovirus QA790.204I.ENV.C8; assay: Single-cycle assay TZM-bl, Env pseudovirus panel
[9] = system: HIV-1 Env pseudovirus MI206.W0M.ENV.D1; assay: Single-cycle assay, Paired Infant and Maternal Env clones
[10] = system: HIV-1 Env pseudovirus CAP210.2.00.E8; assay: Single-cycle assay TZM-bl, Env pseudovirus panel
[11] = system: HIV-1 Env pseudovirus PVO, clone 4; assay: Single-cycle assay TZM-bl, Env pseudovirus panel
[12] = biological target: HIV-1 Reverse Transcriptase (RT) (Human immunodeficiency virus type 1 group M subtype B, UniProt P04585); assay: biochemical; type: biochemical; settings: HIV-1 Reverse Transcriptase; mean ± SD, n=3
[13] = system: HIV-1 Env pseudovirus ML274.W0M.ENV.B1; assay: Single-cycle assay, Paired Infant and Maternal Env clones
[14] = system: HIV-1 Env pseudovirus Du422, clone 1; assay: Single-cycle assay TZM-bl, Env pseudovirus panel
[15] = system: HIV-1 Env pseudovirus B41; assay: Single-cycle assay TZM-bl, Env pseudovirus panel
[16] = system: HIV-1 Env pseudovirus QB099.391M.ENV.C8; assay: Single-cycle assay TZM-bl, Env pseudovirus panel
[17] = system: HIV-1 Env pseudovirus WEAUd15.410.5017; assay: Single-cycle assay TZM-bl, Env pseudovirus panel
[18] = system: HIV-1 Env pseudovirus 1054.TC4.1499; assay: Single-cycle assay TZM-bl, Env pseudovirus panel
[19] = system: HIV-1 Env pseudovirus Q259ENV.W6; assay: Single-cycle assay TZM-bl, Env pseudovirus panel
[20] = system: HIV-1 Env pseudovirus QH0692, clone 42; assay: Single-cycle assay TZM-bl, Env pseudovirus panel
[21] = system: HIV-1 Env pseudovirus CRF02_AG, clone 257; assay: Single-cycle assay TZM-bl, Env pseudovirus panel
[22] = system: HIV-1 Env pseudovirus CRF02_AG, clone 251; assay: Single-cycle assay TZM-bl, Env pseudovirus panel
[23] = system: HIV-1 Env pseudovirus MK184.W0M.ENV.E4; assay: Single-cycle assay, Paired Infant and Maternal Env clones
[24] = system: HIV-1 Env pseudovirus BL274.W6M.ENV.A3; assay: as above
[25] = system: HIV-1 Env pseudovirus MJ613.W0M.ENV.A2; assay: as above
[26] = system: HIV-1 panel of Paired Infant (B) and Maternal (M) Env Molecular Clones; assay: Single-cycle assay, means over Paired Infant and Maternal Env clones
[27] = system: HIV-1 Env pseudovirus QD435.100M.ENV.B5; assay: Single-cycle assay TZM-bl, Env pseudovirus panel
[28] = system: HIV-1 Env pseudovirus QA790.204I.ENV.E2; assay: Single-cycle assay TZM-bl, Env pseudovirus panel
[29] = system: HIV-1 Env pseudovirus THRO4156, clone 18; assay: Single-cycle assay TZM-bl, Env pseudovirus panel
Cytotoxicity [30] = type: cell-based, human; settings: human, freshly isolated and stimulated uninfected PBMC
Cytotoxicity [31] = type: cell-based; settings: human, U87-CD4-CCR5 cells
[32] = system: HIV-1 Env pseudovirus REJO4541, clone 67; assay: Single-cycle assay TZM-bl, Env pseudovirus panel
[33] = system: HIV-1 Env pseudovirus HIV-25925-2, clone 22; assay: Single-cycle assay TZM-bl, Env pseudovirus panel
[34] = system: HIV-1 Env pseudovirus B1206.W6P.ENV.A1A; assay: Single-cycle assay, Paired Infant and Maternal Env clones
[35] = system: HIV-1 Env pseudovirus KNH1144; assay: Single-cycle assay TZM-bl, Env pseudovirus panel

**Q.** For Cc1nc([C@@H](CN)NC(=O)c2ccc(-c3ccc(F)c(F)c3)[nH]2)sc1CO (single isomer, unassigned) [NBD-14113, reference compound], which IC50 ([1]; subtype C, NIH # 11504, HIV-16936-2, clone 21, TZM-bl cells) is on record?
**A.** 5.9 ± 0.2 µM

**Q.** And the IC50 ([2]; subtype A, NIH # 11891, QF495.23M.ENV.A3, TZM-bl cells)?
**A.** 4 ± 0.2 µM

**Q.** What about the IC50 ([3]; subtype B, NIH # 11023, TRO, clone 11, TZM-bl cells) of the same compound?
**A.** 5.1 ± 0.1 µM

**Q.** What about the IC50 ([4]; subtype B, NIH # 11036, RHPA4259, clone 7, TZM-bl cells) of the same compound?
**A.** 3.7 ± 0.4 µM

**Q.** And the IC50 [5]?
**A.** 26.3 ± 1.4 µM

**Q.** What about the IC50 ([6]; subtype C, NIH # 11500, HIV-00836-2, clone 5, TZM-bl cells) of the same compound?
**A.** 4.3 ± 0.4 µM

**Q.** What about the IC50 ([7]; subtype C/D, NIH # 11522-B (infant), BK184.W6M.ENV.D2) of the same compound?
**A.** 3.6 ± 0.2 µM

**Q.** And the IC50 ([8]; subtype A1/D, NIH # 11903, QA790.204I.ENV.C8, TZM-bl cells)?
**A.** 4.3 ± 0.1 µM

**Q.** And the IC50 ([9]; subtype A, NIH # 11531-M (maternal), MI206.W0M.ENV.D1)?
**A.** 3.4 ± 0.2 µM

**Q.** And the IC50 ([10]; subtype C, NIH # 11317, CAP210.2.00.E8, TZM-bl cells)?
**A.** 3.7 ± 0.1 µM

**Q.** And the IC50 ([11]; subtype B, NIH # 11022, PVO, clone 4, TZM-bl cells)?
**A.** 4 ± 0.3 µM

**Q.** And the IC50 [12]?
**A.** 45.9 ± 3.6 µM

**Q.** And the IC50 ([13]; subtype A, NIH # 11540-M (maternal), ML274.W0M.ENV.B1)?
**A.** 4.5 ± 0.6 µM

**Q.** And the IC50 ([14]; subtype C, NIH # 11308, Du422, clone 1, TZM-bl cells)?
**A.** 3 ± 0.1 µM

**Q.** And the IC50 ([15]; subtype B, B41, TZM-bl cells)?
**A.** 3.4 ± 0.1 µM

**Q.** And the IC50 ([16]; subtype C, NIH # 11909, QB099.391M.ENV.C8, TZM-bl cells)?
**A.** 4 ± 0.3 µM

**Q.** And the IC50 ([17]; subtype B, NIH # 11578, WEAUd15.410.5017, R5X4-tropic virus, TZM-bl cells)?
**A.** 3.7 ± 0.3 µM

**Q.** And the IC50 ([18]; subtype B, NIH # 11561, 1054.TC4.1499, TZM-bl cells)?
**A.** 3.6 ± 0.2 µM

**Q.** And the IC50 ([19]; subtype A, NIH # 11887, Q259ENV.W6, TZM-bl cells)?
**A.** 2.1 ± 0.3 µM

**Q.** What about the IC50 ([20]; subtype B, NIH # 11018, QH0692, clone 42, TZM-bl cells) of the same compound?
**A.** 4.3 ± 0.4 µM

**Q.** What about the IC50 ([21]; subtype AG, NIH # 11599, CRF02_AG, clone 257, TZM-bl cells) of the same compound?
**A.** 4.6 ± 0.5 µM

**Q.** What about the IC50 ([22]; subtype AG, NIH # 11595, CRF02_AG, clone 251, TZM-bl cells) of the same compound?
**A.** 3 ± 0.2 µM

**Q.** And the IC50 ([23]; subtype C/D, NIH # 11536-M (maternal), MK184.W0M.ENV.E4)?
**A.** 2.6 ± 0.3 µM

**Q.** And the IC50 ([24]; subtype A, NIH # 11525-B (infant), BL274.W6M.ENV.A3)?
**A.** 5.7 ± 0.3 µM

**Q.** What about the IC50 ([25]; subtype A, NIH # 11534-M (maternal), MJ613.W0M.ENV.A2) of the same compound?
**A.** 4.9 ± 0.2 µM

**Q.** And the IC50 ([26]; read-out: IC50 Mean ± SEM: Infant (B), mean over infant clones)?
**A.** 4.3e-06 ± 5e-07 M

**Q.** What about the IC50 ([26]; read-out: IC50 Mean ± SEM: Mother, mean over maternal clones) of the same compound?
**A.** 4e-06 ± 4e-07 M

**Q.** And the IC50 ([27]; subtype D, NIH # 11916, QD435.100M.ENV.B5, TZM-bl cells)?
**A.** 2.2 ± 0.3 µM

**Q.** And the IC50 ([28]; subtype A1/D, NIH # 11904, QA790.204I.ENV.E2, TZM-bl cells)?
**A.** 3 ± 0.1 µM

**Q.** For CNCC(NC(=O)c1ccc(-c2ccc3c(c2)OCO3)[nH]1)c1nc(CO)cs1 (centres unmarked) [NBD-14159, 5-(benzo[d][1,3]dioxol-5-yl)-N-(1-(4-(hydroxymethyl)thiazol-2-yl)-2-(methylamino)ethyl)-1H-pyrrole-2-carboxamide], which IC50 ([1]; TZM-bl) is on record?
**A.** 5.3 ± 0.2 µM

**Q.** And the IC50 ([2]; TZM-bl)?
**A.** 3.7 ± 0.1 µM

**Q.** And the IC50 ([3]; TZM-bl)?
**A.** 4.4 ± 0.6 µM

**Q.** What about the IC50 ([4]; TZM-bl) of the same compound?
**A.** 3.7 ± 0.4 µM

**Q.** What about the IC50 ([5]; Pseudovirus, U87/CD4/CCR5) of the same compound?
**A.** 41.3 ± 3.4 µM

**Q.** And the IC50 ([6]; TZM-bl)?
**A.** 4.9 ± 0.3 µM

**Q.** And the IC50 [29]?
**A.** 2.7 ± 0.2 µM

**Q.** What about the IC50 [7] of the same compound?
**A.** 4.2 ± 0.1 µM

**Q.** And the CC50 at 7 days (Cytotoxicity [30])?
**A.** 68.3 ± 5 µM

**Q.** What about the IC50 ([8]; TZM-bl) of the same compound?
**A.** 2.1 ± 0.1 µM

**Q.** What about the CC50 at 3 days (Cytotoxicity [31]) of the same compound?
**A.** > 100 µM

**Q.** What about the IC50 [9] of the same compound?
**A.** 3.4 ± 0.2 µM

**Q.** And the IC50 ([10]; TZM-bl)?
**A.** 3.5 ± 0.2 µM

**Q.** What about the IC50 ([11]; TZM-bl) of the same compound?
**A.** 4.3 ± 0.7 µM

**Q.** What about the IC50 [13] of the same compound?
**A.** 5.4 ± 0.5 µM

**Q.** What about the IC50 ([14]; TZM-bl) of the same compound?
**A.** 3.1 ± 0.3 µM

**Q.** And the IC50 ([15]; TZM-bl)?
**A.** 1.7 ± 0.1 µM

**Q.** And the IC50 ([16]; TZM-bl)?
**A.** 5 ± 0.1 µM

**Q.** What about the IC50 ([17]; TZM-bl) of the same compound?
**A.** 3.3 ± 0.2 µM

**Q.** What about the IC50 [32] of the same compound?
**A.** 3.1 ± 0.4 µM

**Q.** And the IC50 ([18]; TZM-bl)?
**A.** 4.1 ± 0.1 µM

**Q.** And the IC50 [33]?
**A.** 4.2 ± 0.5 µM

**Q.** What about the IC50 [34] of the same compound?
**A.** 4 ± 0.3 µM

**Q.** What about the IC50 ([19]; TZM-bl) of the same compound?
**A.** 1.3 ± 0.2 µM

**Q.** What about the IC50 ([20]; TZM-bl) of the same compound?
**A.** 5.8 ± 0.7 µM

**Q.** What about the IC50 ([21]; TZM-bl) of the same compound?
**A.** 4.8 ± 0.2 µM

**Q.** And the IC50 ([22]; TZM-bl)?
**A.** 3.5 ± 0.1 µM

**Q.** And the IC50 [23]?
**A.** 2.6 ± 0.1 µM

**Q.** And the IC50 [24]?
**A.** 4.2 ± 0.5 µM

**Q.** What about the IC50 [35] of the same compound?
**A.** 4 ± 0.3 µM

**Q.** What about the IC50 [25] of the same compound?
**A.** 3.1 ± 0.3 µM

**Q.** And the IC50 ([26]; Human immunodeficiency virus 1, read-out: IC50 Mean ± SEM: Infant (B))?
**A.** 4e-06 ± 3e-07 M

**Q.** And the IC50 ([26]; Human immunodeficiency virus 1, read-out: IC50 Mean ± SEM: Mother (M))?
**A.** 3.8e-06 ± 5e-07 M

**Q.** And the IC50 ([26]; Human immunodeficiency virus 1, read-out: IC50 Mean ± SEM: Overall (n=10))?
**A.** 3.9e-06 ± 3e-07 M

**Q.** And the IC50 ([27]; TZM-bl)?
**A.** 3.3 ± 0.2 µM

**Q.** And the IC50 ([28]; TZM-bl)?
**A.** 3.2 ± 0.2 µM
